Results as given in US20230339968A1, “KRAS Gl2C INHIBITORS” (Eli Lilly and Company, priority 2019, published 2023).

Legend:
H358 (lung) = experiment: CellTiterGlo Cell Proliferation Assay (2D), H358; assay type: cell-based; conditions: Homo sapiens, NCI-H358, 96 hours
Method: (§1) The purpose of this assay is to evaluate the growth of KRas G12C mutant tumor lines following treatment with a test compound. A panel of tumor cell lines harboring KRas G12C or other KRas mutations are collected (Table 25). All cell lines are from ATCC or other sources indicated.
(§2) Typically cells are cultured in RPMI1640 or Dulbecco's modified Eagle's medium (DMEM, GIBCO) supplemented with 10% FBS (GIBCO, Invitrogen). […] The cells are treated with compound for 96 hours, and then are analyzed for viability using the CellTiterGlo® Luminescent Cell Viability Assay® (Promega #G7572 for 2D) according to manufacturer's instructions and an EnVision™ plate reader. Nonlinear regression and sigmoidal dose-response curves are used to calculate the half maximal inhibitory concentration (IC50) with GraphPad Prism 4® software.

MiaPaca-2 (pancr) = experiment: CellTiterGlo Cell Proliferation Assay (2D), MiaPaca-2; assay type: cell-based; conditions: Homo sapiens, MIA PaCa-2, 96 hours
Method: as §1, §2

H23 (lung) = experiment: CellTiterGlo Cell Proliferation Assay (2D), H23; assay type: cell-based; conditions: 96 hours
Method: as §1, §2

LU99 (lung) = experiment: CellTiterGlo Cell Proliferation Assay (2D), LU99; assay type: cell-based; conditions: Homo sapiens, Lu-99, 96 hours
Method: as §1, §2

SW837 (rectum) = experiment: CellTiterGlo Cell Proliferation Assay (2D), SW837; assay type: cell-based; conditions: Homo sapiens, 96 hours
Method: as §1, §2

HCC44 (lung) = experiment: CellTiterGlo Cell Proliferation Assay (2D), HCC44; assay type: cell-based; conditions: Homo sapiens, 96 hours
Method: as §1, §2

SW756 (cervix) = experiment: CellTiterGlo Cell Proliferation Assay (2D), SW756; assay type: cell-based; conditions: Homo sapiens, 96 hours
Method: as §1, §2

UM-UC-3 (bladder) = experiment: CellTiterGlo Cell Proliferation Assay (2D), UM-UC-3; assay type: cell-based; conditions: Homo sapiens, UMUC3, 96 hours
Method: as §1, §2

H1373 (lung) = experiment: CellTiterGlo Cell Proliferation Assay (2D), H1373; assay type: cell-based; conditions: Homo sapiens, NCI-H1373, 96 hours
Method: as §1, §2

SW1573 (lung) = experiment: CellTiterGlo Cell Proliferation Assay (2D), SW1573; assay type: cell-based; conditions: Homo sapiens, 96 hours
Method: as §1, §2

H2030 (lung) = experiment: CellTiterGlo Cell Proliferation Assay (2D), H2030; assay type: cell-based; conditions: Homo sapiens, NCI-H2030, 96 hours
Method: as §1, §2

H358 xenograft = experiment: Anti-tumor growth activity in lung cancer H358 xenograft mouse model; assay type: in vivo
Method: The purpose of this assay is to determine anti-tumor activities of test compounds (Example 34, 35, and 36) in a lung cancer H358 mouse xenograft model. H358 lung tumor cells (10×10^6) are implanted by subcutaneous injection in hind leg of nude female mice (Taconic Biosciences). A total of 4 mice in each group are used for the efficacy study. Treatment is initiated with oral administration (gavage) of the test compound or vehicle (20% Captisol®, 25 mM phosphate, pH 2.0 in 0.2 mL volume) once or twice daily for 28 days when the tumor size reaches approximately 300 mg. Tumor growth and body weight are monitored over time to evaluate efficacy and signs of toxicity. […] No significant animal body weight loss was observed through the whole study for these compounds.

IC50 (H358 (lung)) | IC50 (MiaPaca-2 (pancr)) | IC50 (SW837 (rectum)) | IC50 (HCC44 (lung)) | IC50 (SW756 (cervix)) | IC50 (H1373 (lung)) | IC50 (SW1573 (lung)) | SMILES | inhibition at 10 µM (H358 (lung)) | inhibition at 10 µM (MiaPaca-2 (pancr)) | IC50 (H23 (lung)) | inhibition at 10 µM (H23 (lung)) | IC50 (LU99 (lung)) | inhibition at 10 µM (LU99 (lung)) | inhibition at 10 µM (SW837 (rectum)) | inhibition at 10 µM (HCC44 (lung)) | inhibition at 10 µM (SW756 (cervix)) | IC50 (UM-UC-3 (bladder)) | inhibition at 10 µM (UM-UC-3 (bladder)) | inhibition at 10 µM (H1373 (lung)) | inhibition at 10 µM (SW1573 (lung)) | further results
4 nM | 18 nM | 250 nM | > 10000 nM | 1630 nM | 1810 nM | > 10000 nM | C=CC(=O)N1CCN2C(=O)c3cc(Cl)c(-c4ccc(F)c5sc(N)nc45)c(Cl)c3OCC[C@H]2C1 (atropisomer, axis not shown) [Example 1, (13aS)-9-(2-Amino-7-fluoro-1,3-benzothiazol-4-yl)-8,10-dichloro-2-prop-2-enoyl-1,3,4,12,13,13a-hexahydropyrazino[2,1-d][1,5]benzoxazocin-6-one] | 94.5% | 77.2% | 45 nM | 98.2% | 303 nM | 89.9% | 60.8% | 46.4% | 51.9% | 730 nM | 54.3% | 68.8% | 35% | IC50 (H2030 (lung)): > 10000 nM; inhibition at 10 µM (H2030 (lung)): 32.9%
8 nM | 81 nM | 570 nM | 2840 nM | 2520 nM | 5490 nM | 9350 nM | C=CC(=O)N1CCN2C(=O)c3cc(F)c(-c4ccc(F)c5sc(N)c(C#N)c45)c(Cl)c3OC[C@H]2C1 [Example 36, 4-[(4aR)-7-Chloro-9-fluoro-11-oxo-3-prop-2-enoyl-2,4,4a,5-tetrahydro-1H-pyrazino[2,1-c][1,4]benzoxazepine-8-yl]-2-amino-7-fluoro-benzothiophene-3-carbonitrile] | 89.1% | 79.6% | 100 nM | 96.7% | 349 nM | 99.1% | 58.7% | 80.6% | 58.1% | 1860 nM | 91.6% | 82.6% | 54.3% | IC50 (H2030 (lung)): > 10000 nM; inhibition at 10 µM (H2030 (lung)): 55.8%; % Regression (Day 12) (H358 xenograft; 30 mg/kg PO, BID): −68.96%
2 nM | 10 nM | 200 nM | > 10000 nM | 1080 nM | 6740 nM | 7820 nM | C=CC(=O)N1CCN2C(=O)c3cc(F)c(-c4cccc5sc(N)c(C#N)c45)c(Cl)c3OCC[C@H]2C1 [Example 34, 4-[(13aS)-10-Chloro-8-fluoro-6-oxo-2-prop-2-enoyl-1,3,4,12,13,13a-hexahydropyrazino[2,1-d][1,5]benzoxazocin-9-yl]-2-amino-benzothiophene-3-carbonitrile] | 95.6% | 82.9% | 26 nM | 96.8% | 201 nM | 91.9% | 59.6% | 41% | 56.9% | 510 nM | 56.1% | 67.7% | 60.8% | IC50 (H2030 (lung)): > 10000 nM; inhibition at 10 µM (H2030 (lung)): 41.1%; % Regression (Day 12) (H358 xenograft; 100 mg/kg PO, QD): −30.96%; % Regression (Day 26) (H358 xenograft; 100 mg/kg PO, QD): −6.28%

SMILES | IC50 (H358 (lung)) | IC50 (MiaPaca-2 (pancr)) | IC50 (SW837 (rectum)) | IC50 (HCC44 (lung)) | IC50 (SW756 (cervix)) | IC50 (H1373 (lung)) | IC50 (SW1573 (lung)) | inhibition at 10 µM (H358 (lung)) | inhibition at 10 µM (MiaPaca-2 (pancr)) | IC50 (H23 (lung)) | inhibition at 10 µM (H23 (lung)) | IC50 (LU99 (lung)) | inhibition at 10 µM (LU99 (lung)) | inhibition at 10 µM (SW837 (rectum)) | inhibition at 10 µM (HCC44 (lung)) | inhibition at 10 µM (SW756 (cervix)) | IC50 (UM-UC-3 (bladder)) | inhibition at 10 µM (UM-UC-3 (bladder)) | inhibition at 10 µM (H1373 (lung)) | inhibition at 10 µM (SW1573 (lung)) | further results
C=CC(=O)N1CCN2C(=O)c3cc(F)c(-c4ccc(F)c5sc(N)c(C#N)c45)c(Cl)c3OCC[C@H]2C1 [Example 35, 4-[(13aS)-10-Chloro-8-fluoro-6-oxo-2-prop-2-enoyl-1,3,4,12,13,13a-hexahydropyrazino[2,1-d][1,5]benzoxazocin-9-yl]-2-amino-7-fluoro-benzothiophene-3-carbonitrile] | 2 nM | 11 nM | 330 nM | 2230 nM | 1550 nM | 3540 nM | > 10000 nM | 96.4% | 85.8% | 24 nM | 98% | 173 nM | 96.6% | 64.2% | 64.3% | 56.7% | 1090 nM | 80.4% | 86.3% | 44.7% | IC50 (H2030 (lung)): > 10000 nM; inhibition at 10 µM (H2030 (lung)): 40.3%; % Regression (Day 12) (H358 xenograft; 30 mg/kg PO, BID): −72.14%; % Regression (Day 26) (H358 xenograft; 30 mg/kg PO, BID): −67.68%
